Here are results for 1 compound from US20250223560A1, “NOX4 INHIBITOR COMPOSITIONS AND METHODS FOR REGENERATION OF DYSTROPHIC MUSCLE” (FULCRUM THERAPEUTICS, INC., priority 2022, published 2025).

One data set concerns D2.mdx mice. The experiment in a line: 3-month GKT831 treatment of D2.mdx mice, muscle histology and immunofluorescence. The class given is in vivo, mouse. The settings on record: 60 mg/kg P.O. Q.D. The text has this: D2.mdx (Jax #013141) and D2.WT (Jax #000671) mice were originally obtained from Jackson Laboratory. The Nox4^KO:mdx mouse line was created by crossing the Nox4^tm1Klr knockout allele ((23); Jax #022996) onto the D2.mdx background for five generations, as previously reported (15). Following the second backcross, only Nox4^tm1Klr/+ mice homozygous for the DBA/2J polymorphism of […] were selected for continued line development (16). This is because both Nox4 and Ltbp4 are located on murine chromosome 7, and cross-over is required for both alleles to segregate together. At the completion of the backcrossing, Nox4 heterozygous breed pairs were mated to produce Nox4^WT:mdx and Nox4^KO:mdx littermates that were used in experiments. All mice were genotyped for Nox4 using primer sequences provided by Jackson Laboratory, and for Ltbp4 and mdx alleles using published genotyping primers (16).
Mice were housed 3-5 mice per cage, randomly assigned into groups, provided ad libitum access to food (NIH-31 Open formulation diet; Envigo #7917), water, and enrichment, and maintained on a 12-hour light/dark system. Once daily (Q.D.) GKT831 (purchased from Ambeed, Inc.) was administered orally (P.O.) suspended at a concentration of 36 mg/mL in a vehicle consisting of sterilized sunflower seed oil (Sigma-Aldrich). […] The GKT831 treatment group received a dose of 60 mg/kg (21). All animal procedures were approved and conducted in accordance with the University of Florida IACUC and reported using the recommendations of ARRIVE guidelines.
OCT-embedded murine tissues were cryo-sectioned at […] and fixed in 4% PFA. Immunofluorescent analysis was performed using anti-NOX4 (1:2000; Abcam #13303), anti-laminin (1:800; Novus #MAB2549), anti-vimentin (1:1000; Novus #MB300), anti-PDGFRα (1:500; R&D Systems #AF1062), anti-SMA (1:1000; Abcam #ab5694), anti-periostin (1:500, Abcam #ab14041), anti-Pax7 (1:100; R&D Systems #MAB1675), anti-Myosin X (1:800; Sigma #HPA024223) and anti-active caspase-3 (1:1000; Cell Signaling 49661) primary antibodies. Mouse tissue sections incubated with mouse monoclonal antibodies were first incubated with a solution containing donkey anti-mouse IgG AffiniPure Fab fragments (1:25 in PBS; Jackson ImmunoResearch #715-007-003) for one hour prior to blocking. Following overnight incubation in primary antibody, sections were rinsed with PBS and incubated with the appropriate species-specific secondary antibody (1:500 dilution). Lipofuscin-dependent autofluorescence was quenched using a 0.1% solution of Sudan black B following secondary antibody incubation. Slides were cover-slipped using Prolong Gold mounting reagent (Invitrogen). Images were acquired using a Leica SP8 confocal microscope. All comparative images were stained simultaneously and acquired using identical settings. Human samples were obtained through the National Disease Research Interchange (Philadelphia, PA).
Picrosirius red staining was performed as previously described (14) following decalcification of muscle sections using Formical-2000 (StatLab). Slides were visualized with a Leica DMR microscope, and images were acquired using a Leica DFC310FX camera interfaced with Leica LAS X software. All comparative images were stained simultaneously and acquired using identical settings. Images were processed and analyzed by investigators blinded to study groups using ImageJ software, as previously described (14). Image quantification for each sample consisted of the mean value from five independent and randomly-selected fields of view for each muscle section.

The conditions of data set [1]: as described; cited from earlier work.

For the compound `CN(C)c1cccc(-c2c3c(=O)n(-c4ccccc4Cl)[nH]c3cc(=O)n2C)c1` [FTX1620, Setanaxib], in the data set with D2.mdx mice (D2.mdx gastrocnemius, 3 months), the “localization of Pax7 cells” value is given as “largely re-localized”; the “muscle fibers having central nuclei” value was “increases”; the “muscle fibers with expression of myosin X” value is “increases”; the “myofibroblast numbers (PDGFRα, vimentin, SMA labeling)” value is listed as “significantly reduced”. Also, in the data set with D2.mdx mice (D2.mdx mice, 3 months of treatment, evaluated at 6 months of age, vs vehicle), the “muscle fibrosis (picrosirius red, diaphragm and gastrocnemius)” value is recorded as “reduced D2.mdx muscle fibrosis”. For the same compound, the “periostin+ area” value in the data set on D2.mdx mice (D2.mdx muscle, 3 months) is given as “significantly reduced”. In addition, the oral bioavailability result in data set [1] is listed as “orally bioavailable”.
